In PMC10541411 (Nature Communications, 2023):

Tested on: WT 53BP1^FFR IRIF in U2OS cells
Experiment: 53BP1FFR ionizing radiation-induced foci (IRIF) formation, immunofluorescence, WT
Format: cell-based, Homo Sapiens
Settings: 1 Gy X-ray, different concentrations of UNC3474
Excerpt: The foci-forming region (FFR; residues 1220–1711) of wild-type 53BP1 and mutants E1549P/D1550N (53BP1^FFR-PN) and E1549C/E1567C (53BP1^FFR-CC) were inserted into the retroviral vector POZ. The primers used to introduce the E1549P/D1550N mutations are: […] (forward) and […] (reverse). The primers used to introduce the E1549C/E1567C mutations are: […] (forward) and […] (reverse). The 53BP1^FFR constructs were stably expressed at a moderate level in U2OS cells. To probe the effect of UNC3474 on 53BP1^FFR IRIF formation, U2OS cells were grown on glass coverslips, pre-incubated for 1 h with various concentrations of UNC3474 and exposed to 1 Gy of X-ray radiation. After 1 h, the cells were fixed in 4% formaldehyde in PBS for 15 min at room temperature and blocked and permeabilized for 1 h in PBS containing 0.3% Triton X-100, 1% BSA, 10% fetal bovine serum. […]
Cell samples were subjected to z-stack scanning with a total depth of 5 μm to comprehensively capture all 53BP1^FFR and γH2A.X IRIF within the cell nuclei, which were fluorescently labeled with DAPI. […] To assess the quantification of 53BP1^FFR and γH2A.X foci per nuclei, a customized CellProfiler (version 3.0)[68] pipeline was employed. […]

CC(C)c1cccc(C(=O)NCCCNC(C)(C)C)c1 [UNC3474]
WT 53BP1FFR IRIF formation: inhibited in a dose-dependent manner
